{"source": "patent US20040138198A1", "about": "“Vasectomy procedure and related kit” (priority 2001, published 2004)", "key": {"sperm in vas": {"system": "sperm in vas", "experiment": "non-GLP study, in vivo effect on motility and viability of sperm in vas", "conditions": "injection, 0.2 mg/kg body weight; saline injected controls 35%", "from_the_text": "In another non-GLP study, the in vivo effect of diltiazem on motility and viability of sperm in vas was observed."}, "vasa deferentia": {"system": "vasa deferentia", "conditions": "rat, in vivo", "experimental": "A dose ranging non-GLP study was conducted in rats to determine the local toxic effect of diltiazem on vasa deferentia."}}, "data": [{"smiles": "COc1ccc([C@@H]2Sc3ccccc3N(CCN(C)C)C(=O)[C@@H]2OC(C)=O)cc1", "note": "[diltiazem]", "values": [{"measurement": "percentage of non-viable sperm", "setting": "sperm in vas", "result": 92, "unit": "%"}, {"measurement": "changes in the histology of the vas", "setting": "vasa deferentia; 0.2 mg/kg", "result": "did not cause any changes in the histology of the vas"}, {"measurement": "effect on the vas", "setting": "vasa deferentia; 2 mg/kg", "result": "no effect on the vas"}, {"measurement": "mortality of rats", "setting": "vasa deferentia; 50 mg/kg", "result": "no mortality"}]}]}
